We go through two substances from patent US7994279B2, “Altered peptide ligands of GAD65” (The University of Toledo, priority 2006, dated 2011).

The subject of one assay is HLA.A2. The experiment in a line: Binding of GAD65 546-554 fragments to human MHC class I. From the text:
Treatments which reduce GAD65 response can ameliorate Type 1 diabetes in NOD mice (spontaneous responses in NOD and NOD.HLA.A2 mice; the GAD65 546-554 fragments bind Kd and HLA.A2). Unlike the GAD65 molecule, the APL compositions can target a specific set of T cells and reduce the risk of accidental activation of pathogenic T cells.
The mouse (Kd) and human (HLA-A2) are associated with increased risk of Type 1 diabetes.

For another assay, the system named is CTL clones. The experiment in a line: IFN release by CTL clones (FIG. 7, Table I). Also on record: Percent Reduction of IFN release: concentration or dose not given beside the values. Type of assay: cell-based.
Another assay relates to CTL clone 14.86. Briefly: THF release by CTL clone 14.86 (FIG. 8, Table 2). In kind it is cell-based. Particulars: for Percent Reduction of THF: clone 14.86. From the text:
ID No.:11] decreases THF of CTL clone 14.86.

“GAD65 546-554: natural 546-554 fragment of glutamic acid decarboxylase GAD65; probably SEQ.ID No. 2 (SYQPLGDKV)”: the “binding to HLA.A2” value in the assay with HLA.A2 is “bind”.
For S-Y-Q-P-L-G-D-K-A (SYQPLGDKA) [APL-70], the “Percent Reduction of IFN release” value in the assay with CTL clones (clone 14.69, A375) is recorded as 41%; in the assay with CTL clones (clone 14.69, B7) it was 27%; in the assay on CTL clones (clone 14.81, A375) it was 31%; in the assay on CTL clones (clone 14.81, B7), 23%; in the assay with CTL clones (clone 14.86, A375), 16%; in the assay on CTL clones (clone 14.86, B7), 17%. Besides, in the assay on CTL clones (various CLT clones), the “IFN release (effect in words)” value was “decreases IFN release”. Besides, in the assay on CTL clone 14.86 (CTL clone 14.86), the “THF of CTL clone (effect in words)” value was “decreases THF”. Further, the “Percent Reduction of THF” value is 37% with CTL clone 14.86 (A375) and 34% in the assay with CTL clone 14.86 (B7).
